Here are results for 2 compounds from PMC12195941, “Novel Micro-LC-MS/MS Method for the Quantification of Tenofovir and Its Active Metabolite Tenofovir-Diphosphate in Biological Matrices for Therapeutic Drug Monitoring” (Pharmaceuticals, 2025).

In general, half-life refers to the time needed for the level to fall by half in the phase considered.

The nature of data set [1]: TFV and TFVDP levels in clinical samples (whole blood, plasma) of treated patients by micro-LC-MS/MS. The note with it: patient 10, tenofovir alafenamide 25 mg, 12 to 24 h after dosing. It counts as in vivo. The method, then: Blood samples were collected, with informed consent, from 11 HIV-infected patients treated with tenofovir, 12 to 24 h after dosing. Two patients (numbers 10 and 11) received tenofovir alafenamide 25 mg, the others being administered with tenofovir disoproxil fumarate 245 mg.
Blood samples were collected from HIV-positive patients at the National Institute for Infectious Diseases “Prof Dr. Matei Bals”, with the approval of the Bioethical Committee (protocol code C10242/02.10.2024, approved 18 October 2024). All patients were under treatment with anti-retroviral drugs, and sampling was performed from 12 to 24 h after dosing.
Blood samples (4 mL each) were collected using potassium EDTA (sampling tubes EDTAK3, 4.0 mL, Englober SRL, Brasov, Romania) or sodium citrate (9NC sampling tubes, BD, Plymouth, UK) as anticoagulants. Aliquots of 0.5 mL were used for plasma separation, by centrifugation (5 min, 3900 rpm), within 60 min from sampling. […] All samples were frozen at −30 °C until analyzed. […]
Analyses were performed in positive electrospray ionization mode. The chromatographic trace 288.054/176.0 was used for TFV quantification, while TFVDP was monitored on the trace 447.942/176.0. Mass transitions 288.054/135.9 and 447.942/270.0 were also used for confirmation of the measured compounds. […]

Data set [2] can be described thus: Validation stability of TFV and TFVDP in spiked whole blood and sample extracts. The note with it: for Stability, Sample extracts 24 h 10 °C: autosampler; for Stability, Sample extracts 24 h 10 °C / Stability, Blood 4 h room temp. / Stability, Blood freeze-thaw 5 cycles / Stability, Blood at −30 °C for 1 month: the values are: stability, % of nominal; for Stability, Blood at −30 °C for 1 month: blood diluted 1:5 with 1.25% ammonia. The data set is classed as in vitro ADME. Here is the method: Samples were stable for 1 month at −30 °C, for 5 freeze–thaw cycles and for 24 h at 10 °C in the autosampler. Benchtop stability was evaluated for 4 h at room temperature with blood samples spiked with TFVDP only and the results were within 96.9 and 104.714 from nominal in stabilized conditions, while in the absence of the phosphatase inhibitor the degradation was, on average, 85% at all tested concentrations. Calibration curves were linear for both TFV and TFVDP, with correlation coefficients > 0.995.
Spiked calibration standards (CC) and quality control (QC) samples were prepared in whole blood diluted 1:5 with ultrapure water containing 1.25% ammonia (v/v). TFV concentrations were as follows: 0–0.25–1–4–16–64–128–256 ng/mL (CC) and 0.75–15–210 ng/mL (QC Low, Medium and High, respectively). TFVDP concentrations were as follows: 0–0.5–2–8–32–128–256–512 ng/mL (CC) and 1.5–30–420 ng/mL (QC Low, Medium and High, respectively).
Blank blood was frozen at −80 °C before use; therefore, cells were lysed. CCs and QCs were built in blood diluted 1 + 4 with water and alkalinized with 1.25% ammonia, for phosphatases inhibition. Patient samples received identical treatment before undergoing the sample preparation protocol, ensuring uniform composition across samples.
The method for quantifying TFV and TFVDP in whole blood was validated in terms of selectivity, linearity, accuracy, precision, limits of quantification, sample stability under storage and processing conditions, extraction recovery, and matrix effects, in accordance with the April 2022 ICH guidelines, subsequently adopted by the FDA in November 2022 [38]. The analytical ranges to be validated were chosen based upon the expected concentrations as found in literature and from in-house preliminary experiments. Matrix effects were evaluated comparing the signal of theoretical QC concentrations prepared in mobile phase (taken as 100% recovery) against those obtained after spiking blank extracts at identical concentrations. Matrix factors were calculated for each analyte, and isotope-labelled internal standards were employed to correct for residual matrix influence.

Data set [3] in a line: TFVDP stability in blood spiked without stabilizers (degradation by phosphatases). It counts as in vitro ADME. The note with it: degrades to TFVMP and TFV. Here is the method:
A series of experiments was conducted to evaluate this degradation by phosphatases and counteract it. TFVDP only (1 or 2 µg/mL) was added to blood or plasma; 50 µL aliquots were extracted in the presence of isotope-labeled internal standards, and the formation of TFV and […] was monitored, together with TFVDP degradation. […] The extent of the phenomenon is illustrated in Figure 3. The first attempt to reduce phosphatases activity was performing all the sample preparation procedures on ice bath. No significant improvement was observed.
Figure 3 Extracted ion chromatograms overlay (A) recorded on the MRM transitions of TFV (B), TFVMP (C) and TFVDP (D) and their corresponding deuterated internal standards in an extracted sample (as described in paragraph 3.5). Blood sample diluted 1:5 with water and spiked with 520 ng/mL TFVDP in a non-stabilized sample (left) and with phosphatases inhibition (right). High peaks of TFMP were observed only after a short time (30 min) at room temperature without enzyme inhibition.

On the set-up of data set [4]: method as in PMID 21118913, PMID 30137238, PMID 25065857. The settings on record: in red blood cells (RBC); cited from earlier work.
Where [5] appears, read: QC High (n = 4; TFV 210, TFVDP 420 ng/mL).
[6] abbreviates: QC Low (n = 4; TFV 0.75, TFVDP 1.5 ng/mL).

In the case of `C[C@H](Cn1cnc2c(N)ncnc21)OCP(=O)(O)O` [TFV, Tenofovir], the “Level in clinical sample, Blood” value in data set [1] is “BLQ”. Besides, the Stability, Sample extracts 24 h 10 °C in data set [2] (QC High (n = 4)) is 90.7%; in data set [2] (QC Low (n = 4)), 94.4%. In addition, the Stability, Blood 4 h room temp. in data set [2] (QC High (n = 4)) is 101%; in data set [2] (QC Low (n = 4)), 102%. For the same compound, the results for the Stability, Blood freeze-thaw 5 cycles in data set [2] (QC High (n = 4)) and in data set [2] (QC Low (n = 4)) were 111% and 114%, respectively. Also, the values for the Stability, Blood at −30 °C for 1 month in data set [2] (setting [5]) and in data set [2] (setting [6]) were 112% and 104%, respectively.
Take `C[C@H](Cn1cnc2c(N)ncnc21)OCP(=O)(O)OP(=O)(O)OP(=O)(O)O` [TFVDP, tenofovir diphosphate]: in data set [2] (4 h at room temperature, blood spiked with TFVDP only, average at all tested concentrations), the “Degradation in the absence of the phosphatase inhibitor” value is listed as 85%. Further, in data set [2] (QC High (n = 4)), the Stability, Sample extracts 24 h 10 °C worked out at 94.3%; the Stability, Blood 4 h room temp. is 96.9%; the Stability, Blood freeze-thaw 5 cycles came out at 95.4%. This compound also gave a Stability, Blood at −30 °C for 1 month in data set [2] (setting [5]) of 106%. For the same compound, in data set [2] (QC Low (n = 4)), the Stability, Sample extracts 24 h 10 °C came to 105%; the Stability, Blood 4 h room temp. came to 105%; the Stability, Blood freeze-thaw 5 cycles turned out to be 111%. Besides, the Stability, Blood at −30 °C for 1 month in data set [2] (setting [6]) was determined as 92.5%. For the same compound, the “Stability of added diphosphate metabolite in blood” value in data set [3] is “unstable in blood”. Further, the half-life in data set [4] was 17 days.
